Assay results published in PubChem BioAssay AID1963436 (Molecular Pharmacology Branch, DTP, NCI, 2024).
Where “and” joins values, the source holds several entries; their conditions need not be identical. Equal values may be shown once.

Tested on: OVCAR-5 complex spheroid (HUVEC/MSC), viability % T/C
Assay: Anticancer human tumor OVCAR-5 cell line growth inhibition [Asc];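 further: spheroids exposed to agents for 7 days before readout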;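 on viability, T/C: 100% = DMSO vehicle-treated wells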
Settings: for viability, T/C: stronger effect = lower value
Protocol: Multicellular complex tumor spheroid response to apoptosis pathway targeting inhibitors Alrizomadlin, Pelcitoclax, and Dasminapant in combination with a variety of drugs and investigational agents in selected tumor cell lines
The MDM2 inhibitor alrizomadlin, the Bcl-2/Bcl-xL inhibitor pelcitoclax, and the IAPs inhibitor dasminapant were evaluated both individually and in combination with standard of care and investigational anticancer small molecules within a complex spheroid model of solid tumors. . Complex spheroids include a stromal component modeled by human endothelial cells (HUVEC) and fibroblasts modeled by human mesenchymal stem cells (MSCs). The concentration ranges selected for each drug and investigational agent were based upon clinically achievable concentrations if the clinical Cmax of the agent was known.
Compounds. The drugs and investigational agents: alrizomadlin (APG-115; NSC831270), pelcitoclax (APG-1252; NSC835773), dasminapant (APG-1387;NSC834197), TAK-243 (NSC785004), copanlisib (NSC809693), olaparib (NSC753686), talazoparib (NSC767125), cobimetinib (NSC 768068), eltanexor (KPT-8602, NSC 794443), abemaciclib (NSC 768073), sotorasib (NSC818433), adagrasib (NSC 831453), MRTX-1133 (NSC 836407), Iadademestat (ORY1001, NSC 806812), and RMC-4630 (NSC839698), were obtained from the NCI Developmental Therapeutics Program Chemical Repository. The FDA-approved anticancer drug set is available from the Developmental Therapeutics Program at https://dtp.cancer.gov/organization/dscb/obtaining/available plates.htm. […] The stock solutions were prepared in dimethyl sulfoxide (DMSO, Sigma-Aldrich, St. Louis, MO, cat. D2650) at 800-fold the tested concentration and stored at -70 degrees C prior to their use. All drugs and investigational agents were tested over a range starting from a high concentration at or near the clinical Cmax and decreasing in half-log increments. If the clinical Cmax for an agent had not been determined, the highest concentration tested was 10 microM.
The patient-derived cancer (PDC) cell lines include five colon adenocarcinomas: 186277-243-T-J2-PDC, 616215-338-R-J1-PDC, 439559-082-T-J2-PDC, 463943-066-T-J2-PDC, and 519858-162-T-J1-PDC; three pancreatic carcinomas: 323965-272-R-J2-PDC, 521955-158-R6-J3-PDC, and 521955-158-R2-J5-PDC; two uterine sarcomas: 327498-152-R-J2-PDC and 993429-296-R-J1-PDC; two rhabdomyosarcomas: 755483-174-R-J1-PDC and 772245-204-R-J1-PDC; two soft tissue sarcomas: 126254-015-R-J1-PDC and 494315-158-R-J1-PDC; two malignant fibrous histiocytomas: 317291-083-R-J1-PDC and 596521-263-R-J1-PDC; two breast carcinomas: 171881-019-R-J1-PDC and 885512-296-R-J2-PDC; and one ovarian carcinoma: 6556581-035-R-J-PDC were obtained from the NCI PDMR, (https://pdmr.cancer.gov). The established cell lines HSSY-2 synovial sarcoma (RRID:CVCL 8719), SYO-1 synovial sarcoma (RRID:CVCL_7146), MPNST malignant peripheral neural sheath tumor were obtained from the Sloan Kettering Institute. The following established cell lines were purchased from the American Type Culture Collection (ATCC, Manassas, VA), Sor the received from the NCI repository:, PANC-1 pancreatic carcinoma (CRL-1469, RRID:CVCL_0480), OVCAR-5 ovarian carcinoma (RRID:CVCL_1628), OVCAR-8 ovarian carcinoma (RRID:CVCL_1629), , MCF-7 breast carcinoma (CRL-12584, RRID:CVCL_0031), MDA-MB-231 breast carcinoma (CRL-12532, RRID:CVCL_0062), NCI-H1876 small cell lung carcinoma (CRL-5902, RRID:CVCL_1503), NCI-H510A small cell lung carcinoma (HTB-184, RRID:CVCL_1565), NCI-H1417 (CRL-5869, RRID:CVCL_1469), and NCI-H196 small cell lung carcinoma (CRL-5823, RRID:CVCL_1509). Dr. Peter Houghton (Greehey Children's Cancer Research Institute, University of Texas Health Science Center, San Antonio, TX) provided Rh-18 rhabdomyosarcoma (RRID:CVCL_1659). Pooled donor human umbilical vein endothelial cells (HUVEC, Lonza, cat. CC-2519) and human mesenchymal stem cells (hMSC, Lonza, cat. PT-2501) were purchased from Lonza (Walkersville, MD).
Cell Culture. […]

[1] = curve of first compound, second compound 0.1 µM
[2] = curve of first compound, second compound 0.316 µM
[3] = curve of first compound, second compound 1 µM
[4] = curve of first compound, second compound 3.16 µM
[5] = curve of first compound, second compound 10 µM

## CCN1CCN(Cc2ccc(Nc3ncc(F)c(-c4cc(F)c5nc(C)n(C(C)C)c5c4)n3)nc2)CC1 + Cc1c(S(C)(=O)=O)c(-c2cc(F)cc(N3CCN(c4ccc(NS(=O)(=O)c5ccc(NC(CCN6CCC(C(=O)OCCCP(=O)(O)O)CC6)CSc6ccccc6)c(S(=O)(=O)C(F)(F)F)c5)cc4)CC3)c2)c(-c2ccc(Cl)cc2)n1C(C)C
[1]
  IC50: > 1 µM
[2]
  IC50: > 1 µM
[3]
  IC50: > 1 µM
[4]
  IC50: > 1 µM
[5]
  IC50: > 1 µM
Second compound 0.1 µM, first compound 0.00316 µM
  viability, T/C: 94.7%
Second compound 0.1 µM, first compound 0.01 µM
  viability, T/C: 83.5%
Second compound 0.1 µM, first compound 0.0316 µM
  viability, T/C: 66%
Second compound 0.1 µM, first compound 0.1 µM
  viability, T/C: 61.5%
Second compound 0.1 µM, first compound 0.316 µM
  viability, T/C: 69.6%
Second compound 0.1 µM, first compound 1 µM
  viability, T/C: 56.1%
Second compound 0.316 µM, first compound 0.00316 µM
  viability, T/C: 79.4%
Second compound 0.316 µM, first compound 0.01 µM
  viability, T/C: 74.1%
Second compound 0.316 µM, first compound 0.0316 µM
  viability, T/C: 68.6%
Second compound 0.316 µM, first compound 0.1 µM
  viability, T/C: 56.1%
Second compound 0.316 µM, first compound 0.316 µM
  viability, T/C: 61.8%
Second compound 0.316 µM, first compound 1 µM
  viability, T/C: 57%
Second compound 1 µM, first compound 0.00316 µM
  viability, T/C: 80.1%
Second compound 1 µM, first compound 0.01 µM
  viability, T/C: 80.4%
Second compound 1 µM, first compound 0.0316 µM
  viability, T/C: 63.5%
Second compound 1 µM, first compound 0.1 µM
  viability, T/C: 55%
Second compound 1 µM, first compound 0.316 µM
  viability, T/C: 58.3%
Second compound 1 µM, first compound 1 µM
  viability, T/C: 50.8%
Second compound 3.16 µM, first compound 0.00316 µM
  viability, T/C: 77%
Second compound 3.16 µM, first compound 0.01 µM
  viability, T/C: 72.9%
Second compound 3.16 µM, first compound 0.0316 µM
  viability, T/C: 63.9%
Second compound 3.16 µM, first compound 0.1 µM
  viability, T/C: 48.6%
Second compound 3.16 µM, first compound 0.316 µM
  viability, T/C: 58.4%
Second compound 3.16 µM, first compound 1 µM
  viability, T/C: 47.9%
Second compound 10 µM, first compound 0.00316 µM
  viability, T/C: 107%
Second compound 10 µM, first compound 0.01 µM
  viability, T/C: 97.7%
Second compound 10 µM, first compound 0.0316 µM
  viability, T/C: 81.5%
Second compound 10 µM, first compound 0.1 µM
  viability, T/C: 47%
Second compound 10 µM, first compound 0.316 µM
  viability, T/C: 54.3%
Second compound 10 µM, first compound 1 µM
  viability, T/C: 49.1%

## Cc1nc(N2CCC3(CC2)COC(C)C3N)c(CO)nc1Sc1ccnc(N)c1Cl (configuration not stated) + Cc1c(S(C)(=O)=O)c(-c2cc(F)cc(N3CCN(c4ccc(NS(=O)(=O)c5ccc(NC(CCN6CCC(C(=O)OCCCP(=O)(O)O)CC6)CSc6ccccc6)c(S(=O)(=O)C(F)(F)F)c5)cc4)CC3)c2)c(-c2ccc(Cl)cc2)n1C(C)C
[1]
  IC50: 1.9 µM
[2]
  IC50: 1.13 µM
[3]
  IC50: 1.19 µM
[4]
  IC50: 0.782 µM
[5]
  IC50: 2.85 µM
Second compound 0.1 µM, first compound 0.00949 µM
  viability, T/C: 96.4%
Second compound 0.1 µM, first compound 0.03 µM
  viability, T/C: 83.9%
Second compound 0.1 µM, first compound 0.0949 µM
  viability, T/C: 81.7%
Second compound 0.1 µM, first compound 0.3 µM
  viability, T/C: 62.8%
Second compound 0.1 µM, first compound 0.949 µM
  viability, T/C: 55.7%
Second compound 0.1 µM, first compound 3 µM
  viability, T/C: 46.9%
Second compound 0.316 µM, first compound 0.00949 µM
  viability, T/C: 95.8%
Second compound 0.316 µM, first compound 0.03 µM
  viability, T/C: 85.1%
Second compound 0.316 µM, first compound 0.0949 µM
  viability, T/C: 73.9%
Second compound 0.316 µM, first compound 0.3 µM
  viability, T/C: 55.6%
Second compound 0.316 µM, first compound 0.949 µM
  viability, T/C: 55.2%
Second compound 0.316 µM, first compound 3 µM
  viability, T/C: 42.9%
Second compound 1 µM, first compound 0.00949 µM
  viability, T/C: 78.1%
Second compound 1 µM, first compound 0.03 µM
  viability, T/C: 76.9%
Second compound 1 µM, first compound 0.0949 µM
  viability, T/C: 72.4%
Second compound 1 µM, first compound 0.3 µM
  viability, T/C: 68.4%
Second compound 1 µM, first compound 0.949 µM
  viability, T/C: 51.1%
Second compound 1 µM, first compound 3 µM
  viability, T/C: 42.6%
Second compound 3.16 µM, first compound 0.00949 µM
  viability, T/C: 87.7%
Second compound 3.16 µM, first compound 0.03 µM
  viability, T/C: 85%
Second compound 3.16 µM, first compound 0.0949 µM
  viability, T/C: 72.5%
Second compound 3.16 µM, first compound 0.3 µM
  viability, T/C: 59.9%
Second compound 3.16 µM, first compound 0.949 µM
  viability, T/C: 45.6%
Second compound 3.16 µM, first compound 3 µM
  viability, T/C: 46.9%
Second compound 10 µM, first compound 0.00949 µM
  viability, T/C: 105%
Second compound 10 µM, first compound 0.03 µM
  viability, T/C: 94%
Second compound 10 µM, first compound 0.0949 µM
  viability, T/C: 88.6%
Second compound 10 µM, first compound 0.3 µM
  viability, T/C: 87.3%
Second compound 10 µM, first compound 0.949 µM
  viability, T/C: 64.8%
Second compound 10 µM, first compound 3 µM
  viability, T/C: 49%

## COc1c(OCCCN2CCOCC2)ccc2c3n(c(=NC(=O)c4cnc(N)nc4)nc12)CCN3
Compound 0.00316 µM
  viability, T/C: 85% and 93% and 92.1%
Compound 0.01 µM
  viability, T/C: 76.2% and 90.5% and 80.5%
Compound 0.0316 µM
  viability, T/C: 49.5% and 55% and 55.8%
Compound 0.1 µM
  viability, T/C: 26.1% and 29.9% and 42%
Compound 0.316 µM
  viability, T/C: 20.3% and 21.6% and 24.1%
Compound 1 µM
  viability, T/C: 9.88% and 9.15% and 11.8%
Curve of compound
  IC50: 0.0324 µM and 0.0439 µM and 0.0553 µM
